This passage reports Kd results from PMC6428421 (Nature cell biology, 2019).

The target of the experiment is IRAK1 (Homo sapiens, UniProt P51617). The experiment in a line: KINOMEScan competition kinase-binding assay.

By Kd is commonly meant a measure of binding affinity in units of concentration. Low readings indicate a tighter complex, high ones a looser complex.

IRAK1, sequence (P51617 whole entry): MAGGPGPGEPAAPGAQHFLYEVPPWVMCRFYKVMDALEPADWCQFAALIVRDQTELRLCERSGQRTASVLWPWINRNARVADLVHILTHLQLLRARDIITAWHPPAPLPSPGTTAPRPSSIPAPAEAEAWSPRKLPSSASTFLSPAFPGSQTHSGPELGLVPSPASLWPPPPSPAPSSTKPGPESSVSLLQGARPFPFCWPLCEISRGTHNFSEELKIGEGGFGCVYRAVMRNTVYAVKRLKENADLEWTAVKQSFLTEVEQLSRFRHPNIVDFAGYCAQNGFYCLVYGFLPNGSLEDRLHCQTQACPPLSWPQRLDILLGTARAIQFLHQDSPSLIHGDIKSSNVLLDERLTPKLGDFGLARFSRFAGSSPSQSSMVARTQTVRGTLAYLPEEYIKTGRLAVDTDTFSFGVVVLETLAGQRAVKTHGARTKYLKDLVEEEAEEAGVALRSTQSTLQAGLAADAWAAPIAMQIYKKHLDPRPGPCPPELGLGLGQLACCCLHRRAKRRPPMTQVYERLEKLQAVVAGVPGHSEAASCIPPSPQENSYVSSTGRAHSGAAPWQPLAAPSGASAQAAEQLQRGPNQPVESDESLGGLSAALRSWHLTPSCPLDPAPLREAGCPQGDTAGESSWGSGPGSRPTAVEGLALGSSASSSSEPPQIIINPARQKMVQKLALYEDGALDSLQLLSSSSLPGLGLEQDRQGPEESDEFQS

`COC(=O)Nc1nc2ccc([S+]([O-])c3ccccc3)cc2[nH]1` (stereo not shown) [OXF, oxfendazole] had a Kd of 5.8 µM.
